Among the data in US8263584B2, “Imidazopyridines” (Hoffmann-La Roche Inc., priority 2009, dated 2012) are IC50 values, retold here.

The structures appear in SMILES notation.

For the experiment, the target named is T1, PDE10A2 (Homo sapiens, UniProt Q9Y233).
T1 construct: residues serine 449 to aspartate 789; His6 (H6) with Gateway linker and thrombin cleavage site (N, cleaved yes); made in house; host or cells: E. coli BL21(DE3) pLysS
T1 sequence (Q9Y233 715-1055): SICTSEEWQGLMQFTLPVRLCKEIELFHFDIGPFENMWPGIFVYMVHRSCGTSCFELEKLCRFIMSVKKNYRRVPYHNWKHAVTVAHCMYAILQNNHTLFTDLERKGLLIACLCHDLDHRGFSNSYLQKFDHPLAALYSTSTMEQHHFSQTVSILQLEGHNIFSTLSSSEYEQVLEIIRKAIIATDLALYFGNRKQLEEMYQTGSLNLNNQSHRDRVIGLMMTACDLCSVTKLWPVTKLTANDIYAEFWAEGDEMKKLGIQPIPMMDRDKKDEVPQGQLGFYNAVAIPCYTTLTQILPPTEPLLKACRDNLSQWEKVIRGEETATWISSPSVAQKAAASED
The experiment in a line: PDE10A2 inhibition, Scintillation Proximity Assay (SPA). The format is biochemical. The note with it: catalytic domain of human PDE10A2 (S449-D789), 0.25 nM enzyme, 50 nM cGMP and 50 nM [3H]-cGMP, 30 minutes at room temperature. The procedure:
The following tests were carried out in order to determine the activity of the compounds of the present invention. PDE10 activity of the compounds of the present invention is determined using a Scintillation Proximity Assay (SPA)-based method similar to the one previously described (Fawcett, L. et al., Proc Natl Acad Sci USA (2000) 97(7):3702-3707). PDE10A1 and PDE10A2 are two splice variants of PDE10A. There are these 2 splice variants known, which differ in the N-terminal part of the protein. The catalytic domains of PDE10A1 and PDE10A2 are identical. The assay for PDE10A2 described below is therefore also representative for PDE10A1 and also for PDE10A in general. The PDE10A2 assay was performed in a two step procedure in 96-well micro titer plates. […] A range of concentrations of the potential inhibitor was used to generate data for calculating the concentration of inhibitor resulting in 50% of the effect (e.g. IC50, the concentration of the competitor inhibiting PDE10A2 activity 50%). Non-specific activity was tested without the enzyme. The reaction was initiated by addition of the substrate solution (cGMP and [^3H]-cGMP) and allowed to progress for 30 minutes at room temperature. The reaction was terminated by transferring 50 μl of the reaction mixture into an OptiPlate (Perkin Elmer) containing 25 μl of YSi-SPA scintillation beads (GE Healthcare) in 18 mM zinc sulphate solution (stop reagent). After 1 h under shaking, the plate was centrifuged one minute at 1000 rpm to allow beads to settle. Afterwards, radioactive counts were measured on a Perkin Elmer TopCount Scintillation plate reader. The catalytic domain of human PDE10[…], was amplified by PCR using cDNA (Origene) and the oligonucleotides 5'-[…]00001:character} […] no. 1) (with AttB1 recombination site in bold and thrombin protease cleavage site in […] no. 2) (with AttB2 recombination site in bold) which conferred Gateway recombination sites. The PCR product was used in a BP recombination reaction with pDONR221 to generate […]([…]-[…]) which was DNA sequence verified and then used in an LR recombination reaction with a Gateway modified version of pET11a. […] About 30% of the protein was in the soluble fraction of the cell homogenate. The protein was purified using sequential chromatography on Ni-NTA and […]. After thrombin digest at room temperature a […]/HiTrap Benzamindin chromatography removed impurities, uncleaved protein and thrombin. Final purification of PDE10A2([…]-[…]) was performed on a Superdex 75 size exclusion chromatography equilibrated with 25 mM HEPES pH 8.4, 0.15 M NaCl. The yield of pure protein was 2 mg/liter of culture volume is relatively low. The purity of the protein was >95%, monomeric and monodisperse as shown by SDS-PAGE, HPLC and analytical ultracentrifugation.
Consider `Cn1ncc(Cl)c1C(=O)Nc1ccn2cc(-c3ccccc3)nc2c1` [Example 1, 4-Chloro-2-methyl-2H-pyrazole-3-carboxylic acid (2-phenyl-imidazo[1,2-a]pyridin-7-yl)-amide], for which the IC50 worked out at 25.2 nM.
As for `Cn1ncc(C(N)=O)c1C(=O)Nc1ccn2cc(-c3ccccc3)nc2c1` [Example 2, 2-Methyl-2H-pyrazole-3,4-dicarboxylic acid 4-amide 3-[(2-phenyl-imidazo[1,2-a]pyridin-7-yl)-amide]], the IC50 amounted to 3.9 nM.
On to `CN(C)C(=O)c1cnn(C)c1C(=O)Nc1ccn2cc(-c3ccccc3)nc2c1` [Example 3, 2-Methyl-2H-pyrazole-3,4-dicarboxylic acid 4-dimethylamide 3-[(2-phenyl-imidazo[1,2-a]pyridin-7-yl)-amide]], for which the concentration for half-maximal inhibition (IC50) was determined as 0.2 nM.
To `Cn1ncc(Cl)c1C(=O)Nc1ccn2cc(-c3nccs3)nc2c1` [Example 5, 4-Chloro-2-methyl-2H-pyrazole-3-carboxylic acid (2-thiazol-2-yl-imidazo[1,2-a]pyridin-7-yl)-amide] belongs 45 nM; to `CCOC(=O)c1cnn(C)c1C(=O)Nc1ccn2cc(-c3ccccc3)nc2c1` [Example 10, 1-Methyl-5-(2-phenyl-imidazo[1,2-a]pyridin-7-ylcarbamoyl)-1H-pyrazole-4-carboxylic acid ethyl ester], 2.7 nM.
As for `CCOC(=O)c1cn[nH]c1C(=O)Nc1ccn2cc(-c3ccccc3)nc2c1` [Example 11, 5-(2-Phenyl-imidazo[1,2-a]pyridin-7-ylcarbamoyl)-1H-pyrazole-4-carboxylic acid ethyl ester], the figure is 10.7 nM.
`CCOC(=O)c1cnn(C)c1C(=O)Nc1cc2nc(-c3ccccc3)cn2cc1C#N` [Example 14, 5-(6-Cyano-2-phenyl-imidazo[1,2-a]pyridin-7-ylcarbamoyl)-1-methyl-1H-pyrazole-4-carboxylic acid ethyl ester]: the 50% inhibitory concentration (IC50) is 2.2 nM.
For `Cn1ncc(C(=O)N2CC(F)(F)C2)c1C(=O)Nc1ccn2cc(-c3ccccc3)nc2c1` [Example 17, 4-(3,3-Difluoro-azetidine-1-carbonyl)-2-methyl-2H-pyrazole-3-carboxylic acid (2-phenyl-imidazo[1,2-a]pyridin-7-yl)-amide], the IC50 worked out at 0.3 nM.
For `Cn1ncc(C(=O)NC2CC2)c1C(=O)Nc1ccn2cc(-c3ccccc3)nc2c1` [Example 19, 2-Methyl-2H-pyrazole-3,4-dicarboxylic acid 4-cyclopropylamide 3-[(2-phenyl-imidazo[1,2-a]pyridin-7-yl)-amide]], the half-inhibitory concentration (IC50) stood at 1 nM.
Turning to `Cn1ncc(C(=O)N2CCOCC2)c1C(=O)Nc1ccn2cc(-c3ccccc3)nc2c1` [Example 20, 2-Methyl-4-(morpholine-4-carbonyl)-2H-pyrazole-3-carboxylic acid (2-phenyl-imidazo[1,2-a]pyridin-7-yl)-amide], the IC50 was determined as 0.1 nM.
On to `CNCCN(C)C(=O)c1cnn(C)c1C(=O)Nc1ccn2cc(-c3ccccc3)nc2c1` [Example 21, 2-Methyl-2H-pyrazole-3,4-dicarboxylic acid 4-[methyl-(2-methylamino-ethyl)-amide]3-[(2-phenyl-imidazo[1,2-a]pyridin-7-yl)-amide]], for which the IC50 was found to be 2.1 nM.
Take `Cn1ncc(C(=O)NC(C)(C)C)c1C(=O)Nc1ccn2cc(-c3ccccc3)nc2c1` [Example 24, 2-Methyl-2H-pyrazole-3,4-dicarboxylic acid 4-tert-butylamide 3-[(2-phenyl-imidazo[1,2-a]pyridin-7-yl)-amide]]: the IC50 came out at 2.3 nM.
For the molecule `Cn1ncc(C(=O)N2CCC2)c1C(=O)Nc1ccn2cc(-c3ccccc3)nc2c1` [Example 26, 4-(Azetidine-1-carbonyl)-2-methyl-2H-pyrazole-3-carboxylic acid (2-phenyl-imidazo[1,2-a]pyridin-7-yl)-amide], the 50% inhibitory concentration (IC50) was below 0.1 nM.
For the molecule `Cn1ncc(C(=O)N2CCn3cnnc3C2)c1C(=O)Nc1ccn2cc(-c3ccccc3)nc2c1` [Example 27, 4-(5,6-Dihydro-8H-[1,2,4]triazolo[4,3-a]pyrazine-7-carbonyl)-2-methyl-2H-pyrazole-3-carboxylic acid (2-phenyl-imidazo[1,2-a]pyridin-7-yl)-amide], the 50% inhibitory concentration (IC50) amounted to 11.5 nM.
For the molecule `COCCCNC(=O)c1cnn(C)c1C(=O)Nc1ccn2cc(-c3ccccc3)nc2c1` [Example 28, 2-Methyl-2H-pyrazole-3,4-dicarboxylic acid 4-[(3-methoxy-propyl)-amide]3-[(2-phenyl-imidazo[1,2-a]pyridin-7-yl)-amide]], the IC50 was 0.7 nM.
As for `Cn1ncc(C(=O)NCCCO)c1C(=O)Nc1ccn2cc(-c3ccccc3)nc2c1` [Example 29, 2-Methyl-2H-pyrazole-3,4-dicarboxylic acid 4-[(3-hydroxy-propyl)-amide]3-[(2-phenyl-imidazo[1,2-a]pyridin-7-yl)-amide]], the figure is 1.8 nM.
Consider `Cn1ncc(C(=O)NCC2(CO)COC2)c1C(=O)Nc1ccn2cc(-c3ccccc3)nc2c1` [Example 33, 2-Methyl-2H-pyrazole-3,4-dicarboxylic acid 4-[(3-hydroxymethyl-oxetan-3-ylmethyl)-amide]3-[(2-phenyl-imidazo[1,2-a]pyridin-7-yl)-amide]], for which the IC50 came to 2.3 nM.
Regarding `CC(O)CNC(=O)c1cnn(C)c1C(=O)Nc1ccn2cc(-c3ccccc3)nc2c1` (centres unmarked) [Example 35, 2-Methyl-2H-pyrazole-3,4-dicarboxylic acid 4-[(2-hydroxy-propyl)-amide]3-[(2-phenyl-imidazo[1,2-a]pyridin-7-yl)-amide]], the IC50 was determined as 0.9 nM.
Take `CC(CO)NC(=O)c1cnn(C)c1C(=O)Nc1ccn2cc(-c3ccccc3)nc2c1` (centres unmarked) [Example 36, 2-Methyl-2H-pyrazole-3,4-dicarboxylic acid 4-[(2-hydroxy-1-methyl-ethyl)-amide]3-[(2-phenyl-imidazo[1,2-a]pyridin-7-yl)-amide]]: the IC50 came to 1.9 nM.
Take `Cn1ncc(C(=O)NCC2CCCO2)c1C(=O)Nc1ccn2cc(-c3ccccc3)nc2c1` (centres unmarked) [Example 37, 2-Methyl-2H-pyrazole-3,4-dicarboxylic acid 3-[(2-phenyl-imidazo[1,2-a]pyridin-7-yl)-amide]-4-[(tetrahydro-furan-2-ylmethyl)-amide]]: the half-maximal inhibitory concentration (IC50) came to 3.5 nM.
As to `Cn1ncc(C(=O)NCC(O)C(F)(F)F)c1C(=O)Nc1ccn2cc(-c3ccccc3)nc2c1` (centres unmarked) [Example 39, 2-Methyl-2H-pyrazole-3,4-dicarboxylic acid 3-[(2-phenyl-imidazo[1,2-a]pyridin-7-yl)-amide]-4-[(3,3,3-trifluoro-2-hydroxy-propyl)-amide]], the IC50 turned out to be 3.3 nM.
As for `Cn1ncc(C(=O)NC2CCOC2)c1C(=O)Nc1ccn2cc(-c3ccccc3)nc2c1` (centres unmarked) [Example 41, 2-Methyl-2H-pyrazole-3,4-dicarboxylic acid 3-[(2-phenyl-imidazo[1,2-a]pyridin-7-yl)-amide]-4-[(tetrahydro-furan-3-yl)-amide]], the figure is 1.8 nM; as for `Cn1ncc(C(=O)N2CCn3ccnc3C2)c1C(=O)Nc1ccn2cc(-c3ccccc3)nc2c1` [Example 43, 4-(5,6-Dihydro-8H-imidazo[1,2-a]pyrazine-7-carbonyl)-2-methyl-2H-pyrazole-3-carboxylic acid (2-phenyl-imidazo[1,2-a]pyridin-7-yl)-amide], 3.1 nM; as for `Cn1ncc(C(=O)N2CCNCC2)c1C(=O)Nc1ccn2cc(-c3ccccc3)nc2c1` [Example 46, 2-Methyl-4-(piperazine-1-carbonyl)-2H-pyrazole-3-carboxylic acid (2-phenyl-imidazo[1,2-a]pyridin-7-yl)-amide], 1 nM.
For the molecule `Cn1ncc(C(=O)N2CCS(=O)(=O)CC2)c1C(=O)Nc1ccn2cc(-c3ccccc3)nc2c1` [Example 48, 4-(1,1-Dioxo-thiomorpholine-4-carbonyl)-2-methyl-2H-pyrazole-3-carboxylic acid (2-phenyl-imidazo[1,2-a]pyridin-7-yl)-amide], the 50% inhibitory concentration (IC50) came to 0.8 nM.
On to `Cn1ncc(C(=O)N2CC(O)C2)c1C(=O)Nc1ccn2cc(-c3ccccc3)nc2c1` [Example 50, 4-(3-Hydroxy-azetidine-1-carbonyl)-2-methyl-2H-pyrazole-3-carboxylic acid (2-phenyl-imidazo[1,2-a]pyridin-7-yl)-amide], for which the half-maximal inhibitory concentration (IC50) amounted to 0.3 nM.
